Values quoted from earlier work in US11919851B2, “Method for producing polyol-based esters of optionally acylated hydroxycarboxylic acids” (IOI Oleo GmbH, priority 2019, dated 2024).

Conditions: free acid and its salts; prior art statement

Compound: CC(O)CC(=O)O (stereo not shown) [3-hydroxybutyric acid]
- adverse effects on oral administration: can cause severe vomiting and nausea
